Key:
[1] = tested on: all tested bacterial strains; test: Susceptibility test, comparison over all tested bacterial strains; type: cell-based, Gram-positive and Gram-negative bacteria
Experimental: (§1) The minimum inhibitory concentration (MIC) was determined according to the Clinical and Laboratory Standards Institute (CLSI) guidelines by broth dilution. Bacteria were cultured in an appropriate medium (such as Cation-Adjusted Muller Hinton Broth) for 6-12 hours and diluted into same medium containing 2-fold serial dilutions of antibiotics. MIC values were derived after 14-20 hour incubation, and were the result of at least 3 independent determinations. The MIC study included Gram-negative strains Salmonella enterica Typhimurium (ST) ATCC 14028, E. coli (EC) ATCC 25922, Pseudomonas aeruginosa (PA) ATCC 27853, and Klebsiella pneumoniae (KPN) ATCC 700603 and Gram-positive strain S. aureus (SA) ATCC 259213.

[2] = Hydrophobicity (comparison; RP-HPLC retention times in Table 1); type: physicochemical
Excerpt: The MIC and cytotoxicity results for previously-described quaternary ammonium COEs COE2-3C, COE2-3C-C4butyl, and COE2-3C-C4hexyl are consistent with previous data (See Limwongyut et al., Chem. Sci. (2020) 11 (31): 8138-8144).

[3] = tested on: Salmonella enterica Typhimurium (ST) ATCC 14028; test: Susceptibility test (MIC), broth dilution, Salmonella enterica Typhimurium; type: cell-based; conditions: Salmonella enterica Typhimurium ATCC 14028, 14-20 hour incubation, read-out: Minimum Inhibitory Concentration
Experimental: as §1

E. coli (EC) ATCC 25922 = test: Susceptibility test (MIC), broth dilution, E. coli; type: cell-based; conditions: Escherichia coli, ATCC25922, E. coli ATCC 25922, 14-20 hour incubation, read-out: Minimum Inhibitory Concentration
Experimental: as §1

[4] = tested on: HepG2 (ATCC HB-8065) cells; test: Cytotoxicity, MTT viability assay, HepG2; type: cell-based
Experimental: (§2) Cellular cytotoxicity was assessed using an MTT viability assay. HepG2 (ATCC HB-8065) cells were seeded at 1×10^4 cells/well in 96 well plates over night at 37 °C in DMEM supplemented with 10% FBS before use. Compounds were serially diluted with 2-fold dilution in culture media to afford a concentration ranging from 8 to 1024 μg/mL. After 24 h incubation, 10 μL of a 5 mg/mL solution of MTT was added to each well. After incubation for 2-4 h, upon discard of previous media, 100 μL of DMSO as solubilizing solution was added to each well, and absorbance at 570 nm were measured on a plate reader. Percent viability was determined by dividing background-corrected absorbance measurements by background corrected measurements for untreated cells. The lowest concentration for which percent viability was less than 50% was deemed the cytotoxicity IC50.

[5] = Cytotoxicity, MTT viability assay, HepG2; type: cell-based; conditions: human, hepg2 cells; HepG2, MTT, 24 h incubation, 8 to 1024 μg/mL; lowest concentration with viability less than 50%; read-out: Cytotoxicity (IC50)
Experimental: as §2

[6] = tested on: S. aureus (SA) ATCC 259213; test: Susceptibility test (MIC), broth dilution, S. aureus; type: cell-based; conditions: Staphylococcus aureus, ATCC259213, read-out: Minimum Inhibitory Concentration
Experimental: as §1

[7] = tested on: Klebsiella pneumoniae (KPN) ATCC 700603; test: Susceptibility test (MIC), broth dilution, Klebsiella pneumoniae; type: cell-based; conditions: ATCC700603, Klebsiella pneumoniae ATCC 700603, 14-20 hour incubation, read-out: Minimum Inhibitory Concentration
Experimental: as §1

[8] = tested on: Pseudomonas aeruginosa (PA) ATCC 27853; test: Susceptibility test (MIC), broth dilution, Pseudomonas aeruginosa; type: cell-based; conditions: ATCC27853, Pseudomonas aeruginosa ATCC 27853, 14-20 hour incubation, read-out: Minimum Inhibitory Concentration
Experimental: as §1

[9] = Formula A compared with COE2-3C and COE2-3C-C4butyl
[10] = Formula K and Formula A compared with each other
[11] = Formula C and Formula K compared with each other
[12] = Formula C compared with COE2-3C-C4butyl

| SMILES | activity against all tested bacterial strains [1, 9] | activity against all tested bacterial strains ([1]; Formula A compared with Formula K) | hydrophobicity (comparison) [2, 9] | MIC [3] | MIC (E. coli (EC) ATCC 25922) | cytotoxicity (comparison) [4, 10] | CC50 at 24 h [5] | MIC [6] | MIC [7] | MIC [8] | activity against all tested bacterial strains [1, 11] | activity against all tested bacterial strains [1, 12] | hydrophobicity (comparison) [2, 11] | cytotoxicity (comparison) [4, 11] | cytotoxicity (comparison) [4, 12] |
| --- | --- | --- | --- | --- | --- | --- | --- | --- | --- | --- | --- | --- | --- | --- | --- |
| N=C(NCCCOc1cc(/C=C/c2ccc(/C=C/c3cc(OCCCNC(=N)C4CC4)cc(OCCCNC(=N)C4CC4)c3)cc2)cc(OCCCNC(=N)C2CC2)c1)C1CC1 [Formula A] | considerably higher activity against all tested bacterial strains | more active against all tested bacterial strains | intermediate hydrophobicity | 1 µg/mL | 1 µg/mL | similar | > 1020 µg/mL | 0.5 µg/mL | 4 µg/mL | 2 µg/mL |  |  |  |  |  |
| CN(CCCOc1cc(/C=C/c2ccc(/C=C/c3cc(OCCCN(C)C(=N)C4CC4)cc(OCCCN(C)C(=N)C4CC4)c3)cc2)cc(OCCCN(C)C(=N)C2CC2)c1)C(=N)C1CC1 [Formula B] |  |  |  | 1 µg/mL | 1 µg/mL |  | 1020 µg/mL | 1 µg/mL | 8 µg/mL | 8 µg/mL |  |  |  |  |  |
| CCCN(CCCOc1cc(/C=C/c2ccc(/C=C/c3cc(OCCCN(CCC)C(=N)C4CC4)cc(OCCCN(CCC)C(=N)C4CC4)c3)cc2)cc(OCCCN(CCC)C(=N)C2CC2)c1)C(=N)C1CC1 [Formula C] |  |  |  | 2 µg/mL | 2 µg/mL |  | 16 µg/mL | 1 µg/mL | 8 µg/mL | 32 µg/mL | identical activities against all tested bacterial strains | more active against all tested bacterial strains | different | different cytotoxicity | similar |
| CCC(=N)N(C)CCCOc1cc(/C=C/c2ccc(/C=C/c3cc(OCCCN(C)C(=N)CC)cc(OCCCN(C)C(=N)CC)c3)cc2)cc(OCCCN(C)C(=N)CC)c1 [Formula D] |  |  |  | 2 µg/mL | 1 µg/mL |  | > 1020 µg/mL | 1 µg/mL | 16 µg/mL | 8 µg/mL |  |  |  |  |  |
| CCC(=N)N(CCCOc1cc(/C=C/c2ccc(/C=C/c3cc(OCCCN(C(=N)CC)C4CC4)cc(OCCCN(C(=N)CC)C4CC4)c3)cc2)cc(OCCCN(C(=N)CC)C2CC2)c1)C1CC1 [Formula E] |  |  |  | 2 µg/mL | 2 µg/mL |  | 128 µg/mL | 1 µg/mL | 8 µg/mL | 16 µg/mL |  |  |  |  |  |
| CCCN(CCCOc1cc(/C=C/c2ccc(/C=C/c3cc(OCCCN(CCC)C(=N)CC)cc(OCCCN(CCC)C(=N)CC)c3)cc2)cc(OCCCN(CCC)C(=N)CC)c1)C(=N)CC [Formula F] |  |  |  | 2 µg/mL | 2 µg/mL |  | 32 µg/mL | 1 µg/mL | 8 µg/mL | 16 µg/mL |  |  |  |  |  |
| N=C(CC1CC1)NCCCOc1cc(/C=C/c2ccc(/C=C/c3cc(OCCCNC(=N)CC4CC4)cc(OCCCNC(=N)CC4CC4)c3)cc2)cc(OCCCNC(=N)CC2CC2)c1 [Formula G] |  |  |  | 2 µg/mL | 2 µg/mL |  | 256 µg/mL | 1 µg/mL | 4 µg/mL | 8 µg/mL |  |  |  |  |  |
| C/N=C(\C)NCCCOc1cc(/C=C/c2ccc(/C=C/c3cc(OCCCN/C(C)=N/C)cc(OCCCN/C(C)=N/C)c3)cc2)cc(OCCCN/C(C)=N/C)c1 [Formula H] |  |  |  | 2 µg/mL | 2 µg/mL |  | > 1020 µg/mL | 1 µg/mL | 16 µg/mL | 32 µg/mL |  |  |  |  |  |
| C(=C\c1cc(OCCCNC2=NCCC2)cc(OCCCNC2=NCCC2)c1)/c1ccc(/C=C/c2cc(OCCCNC3=NCCC3)cc(OCCCNC3=NCCC3)c2)cc1 [Formula J] |  |  |  | 2 µg/mL | 1 µg/mL |  | 1020 µg/mL | 1 µg/mL | 16 µg/mL | 16 µg/mL |  |  |  |  |  |
| C/C(=N\C1CC1)NCCCOc1cc(/C=C/c2ccc(/C=C/c3cc(OCCCN/C(C)=N/C4CC4)cc(OCCCN/C(C)=N/C4CC4)c3)cc2)cc(OCCCN/C(C)=N/C2CC2)c1 [Formula K] |  |  |  | 2 µg/mL | 2 µg/mL | similar | > 1020 µg/mL | 1 µg/mL | 8 µg/mL | 32 µg/mL | identical activities against all tested bacterial strains |  | different | different cytotoxicity |  |

— patent US20260374731A1, “ANTIMICROBIAL CONJUGATED OLIGOELECTROLYTES AS BROAD-SPECTRUM ANTIBIOTICS” (The Regents of the University of California, priority 2023, published 2026)
